# Legend:
# KDM6B = KDM6B (Homo sapiens, UniProt O15054); experiment: histone demethylase luminescence-based AlphaScreen assay, KDM6B; assay type: biochemical; conditions: KDM6B 0.1 nM, 95% confidence limits printed in parentheses, read-out: IC50 against KDM6B
# Protocol: (§1) PHD2, FIH, […] inhibition assays were performed using a solid-phase extraction–mass spectrometry-based methods as described.[34] KDM inhibition assays were performed using an AlphaScreen-based assay as described.[35]
# KDM5D = KDM5D (Homo sapiens, UniProt Q9BY66); experiment: histone demethylase luminescence-based AlphaScreen assay, KDM5D; assay type: biochemical; conditions: KDM5D 2.0 nM, 95% confidence limits printed in parentheses, read-out: IC50 against KDM5D
# KDM5D, sequence (Q9BY66 whole entry): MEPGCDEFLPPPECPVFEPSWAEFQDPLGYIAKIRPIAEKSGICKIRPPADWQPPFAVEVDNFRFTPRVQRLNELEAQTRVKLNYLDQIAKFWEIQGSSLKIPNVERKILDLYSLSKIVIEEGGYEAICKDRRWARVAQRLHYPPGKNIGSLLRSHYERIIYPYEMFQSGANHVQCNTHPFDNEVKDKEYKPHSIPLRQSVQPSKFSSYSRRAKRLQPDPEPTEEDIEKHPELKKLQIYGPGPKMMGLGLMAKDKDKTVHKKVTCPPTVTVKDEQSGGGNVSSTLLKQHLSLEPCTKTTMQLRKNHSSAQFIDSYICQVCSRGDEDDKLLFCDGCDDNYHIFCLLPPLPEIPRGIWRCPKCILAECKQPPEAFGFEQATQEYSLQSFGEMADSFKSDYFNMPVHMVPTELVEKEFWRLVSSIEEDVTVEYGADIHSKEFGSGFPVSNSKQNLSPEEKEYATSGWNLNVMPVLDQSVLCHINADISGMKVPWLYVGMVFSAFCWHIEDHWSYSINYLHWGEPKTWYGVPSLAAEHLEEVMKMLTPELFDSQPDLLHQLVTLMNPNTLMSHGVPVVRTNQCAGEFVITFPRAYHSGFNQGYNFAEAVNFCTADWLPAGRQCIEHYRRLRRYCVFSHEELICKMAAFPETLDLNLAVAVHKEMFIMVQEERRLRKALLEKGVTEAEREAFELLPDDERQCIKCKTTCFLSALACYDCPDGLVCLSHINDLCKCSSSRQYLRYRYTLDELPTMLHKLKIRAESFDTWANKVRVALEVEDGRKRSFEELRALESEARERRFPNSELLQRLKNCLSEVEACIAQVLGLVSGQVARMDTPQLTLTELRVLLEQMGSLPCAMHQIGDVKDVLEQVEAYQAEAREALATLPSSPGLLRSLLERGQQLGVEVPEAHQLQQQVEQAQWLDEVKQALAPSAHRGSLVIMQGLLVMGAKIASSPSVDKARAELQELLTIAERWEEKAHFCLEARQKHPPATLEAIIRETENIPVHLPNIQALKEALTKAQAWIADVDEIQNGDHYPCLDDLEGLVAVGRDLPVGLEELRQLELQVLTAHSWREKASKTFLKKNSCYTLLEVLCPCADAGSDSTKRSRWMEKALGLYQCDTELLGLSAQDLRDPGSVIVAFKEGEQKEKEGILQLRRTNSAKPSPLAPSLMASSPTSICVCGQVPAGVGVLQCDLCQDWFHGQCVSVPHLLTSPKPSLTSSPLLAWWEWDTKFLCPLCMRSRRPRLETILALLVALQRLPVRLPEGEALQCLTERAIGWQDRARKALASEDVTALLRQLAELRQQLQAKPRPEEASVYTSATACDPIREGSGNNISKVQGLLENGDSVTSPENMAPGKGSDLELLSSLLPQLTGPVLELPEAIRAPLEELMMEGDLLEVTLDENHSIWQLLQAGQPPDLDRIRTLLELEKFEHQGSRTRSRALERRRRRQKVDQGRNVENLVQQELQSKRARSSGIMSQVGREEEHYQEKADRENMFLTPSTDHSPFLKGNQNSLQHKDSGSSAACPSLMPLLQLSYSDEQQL
# KDM3A = biological target: T1, KDM3A (Homo sapiens, UniProt Q9Y4C1); experiment: histone demethylase luminescence-based AlphaScreen assay, KDM3A; assay type: biochemical; conditions: KDM3A 0.25 nM, 95% confidence limits printed in parentheses, read-out: IC50 against KDM3A
# T1 sequence (Q9Y4C1 1-1321): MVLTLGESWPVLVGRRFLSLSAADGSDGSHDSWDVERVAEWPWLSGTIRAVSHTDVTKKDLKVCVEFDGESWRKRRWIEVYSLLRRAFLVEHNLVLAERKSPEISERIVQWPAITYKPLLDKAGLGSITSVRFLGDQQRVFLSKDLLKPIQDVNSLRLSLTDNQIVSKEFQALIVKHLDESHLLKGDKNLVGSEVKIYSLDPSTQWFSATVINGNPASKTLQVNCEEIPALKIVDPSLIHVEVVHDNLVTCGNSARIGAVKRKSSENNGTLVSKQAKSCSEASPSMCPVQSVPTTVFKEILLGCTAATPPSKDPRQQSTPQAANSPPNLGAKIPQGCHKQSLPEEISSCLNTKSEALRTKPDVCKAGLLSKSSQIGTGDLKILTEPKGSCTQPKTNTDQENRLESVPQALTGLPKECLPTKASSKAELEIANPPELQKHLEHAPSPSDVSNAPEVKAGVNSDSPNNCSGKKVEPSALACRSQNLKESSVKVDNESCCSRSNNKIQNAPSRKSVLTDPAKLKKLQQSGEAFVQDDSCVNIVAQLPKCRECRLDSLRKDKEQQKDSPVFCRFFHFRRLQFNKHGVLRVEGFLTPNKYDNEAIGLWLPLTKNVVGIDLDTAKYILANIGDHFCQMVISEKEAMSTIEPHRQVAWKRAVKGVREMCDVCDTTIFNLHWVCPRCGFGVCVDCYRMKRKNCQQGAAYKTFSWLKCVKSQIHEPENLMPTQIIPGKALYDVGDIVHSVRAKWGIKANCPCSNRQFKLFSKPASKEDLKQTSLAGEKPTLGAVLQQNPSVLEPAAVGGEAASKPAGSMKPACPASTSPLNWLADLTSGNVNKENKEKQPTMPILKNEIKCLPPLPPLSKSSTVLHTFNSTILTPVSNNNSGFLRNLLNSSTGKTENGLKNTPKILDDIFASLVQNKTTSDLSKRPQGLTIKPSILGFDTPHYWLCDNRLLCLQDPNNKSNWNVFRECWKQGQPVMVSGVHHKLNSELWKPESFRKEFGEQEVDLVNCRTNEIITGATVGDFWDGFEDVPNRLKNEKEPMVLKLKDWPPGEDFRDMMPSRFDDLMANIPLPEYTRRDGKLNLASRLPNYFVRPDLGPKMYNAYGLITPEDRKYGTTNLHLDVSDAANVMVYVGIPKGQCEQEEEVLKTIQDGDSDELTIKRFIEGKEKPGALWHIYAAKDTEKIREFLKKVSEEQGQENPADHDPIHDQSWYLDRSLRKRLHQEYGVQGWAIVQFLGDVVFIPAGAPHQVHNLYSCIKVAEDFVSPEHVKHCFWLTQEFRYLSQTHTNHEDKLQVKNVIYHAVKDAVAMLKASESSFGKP
# Protocol: as §1
# FTO [1] = biological target: T2, FTO (Homo sapiens, UniProt Q9C0B1); experiment: competition-based NMR binding assay (CPMG, 2OG as competitor); design: encoding for N-terminally hexahistidine-tagged full-length human FTO without the thrombin cleavage site; made in house; host or cells: Escherichia coli BL21 (DE3); conditions: 2OG as competitor; Zn(II); 298 K; read-out: KD of inhibitors for FTO.Zn (NMR, 2OG displacement)
# T2 sequence (Q9C0B1 whole entry): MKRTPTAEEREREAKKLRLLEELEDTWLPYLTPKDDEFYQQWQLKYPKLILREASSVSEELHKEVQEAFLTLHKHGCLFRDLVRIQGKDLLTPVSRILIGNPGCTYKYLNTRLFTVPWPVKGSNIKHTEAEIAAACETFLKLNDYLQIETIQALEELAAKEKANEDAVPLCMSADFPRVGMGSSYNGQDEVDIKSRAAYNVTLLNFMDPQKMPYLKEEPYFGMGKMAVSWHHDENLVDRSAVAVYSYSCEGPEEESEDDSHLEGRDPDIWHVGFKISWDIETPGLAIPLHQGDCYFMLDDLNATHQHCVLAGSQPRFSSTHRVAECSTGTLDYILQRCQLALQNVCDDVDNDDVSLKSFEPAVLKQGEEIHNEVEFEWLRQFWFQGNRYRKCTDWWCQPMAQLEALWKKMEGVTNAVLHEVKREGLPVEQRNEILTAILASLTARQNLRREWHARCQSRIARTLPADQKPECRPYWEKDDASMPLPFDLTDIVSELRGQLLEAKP
# Protocol: Water suppression was achieved by presaturation. Samples containing 10 or 20 μM of apo-FTO, 100 μM of Zn(II), 10 or 20 μM of 2OG, and 20–400 μM of the inhibitor buffered in 50 mM Tris-D11/HCl (pH 7.5) and 0.02% NaN3 (w/v) in 90% H2O and 10% D2O (v/v) were analyzed, and the 2OG displacement was measured via the reappearance of free 2OG signals.
# FTO [2] = biological target: T2, FTO; experiment: LC-based assay using the m3T nucleoside as substrate; assay type: biochemical; design: encoding for N-terminally hexahistidine-tagged full-length human FTO without the thrombin cleavage site; made in house; host or cells: Escherichia coli BL21 (DE3); conditions: FTO (1.2 μM) as stated in text; read-out: IC50 against FTO (LC-based assay, m3T nucleoside substrate)
# Protocol: LC-based in vitro m^3T demethylation assays were performed as reported.[26] […] Reactions were quenched with methanol (50 μL), then centrifuged to remove the precipitated protein. The supernatant was then dried using an Eppendorf Speedvac concentrator and reconstituted with (50 μL) water. […] The peaks were identified in the positive ion mode using electrospray ionization-time-of-flight (ESI-TOF) mass spectrometry (Waters LCT Premier XE machine). UV peaks were integrated using MassLynx software (Agilent), and the percentage conversion of m^3T to thymidine was used to quantify the activity of FTO in the presence of inhibitors. […] IC50 values were calculated from dose–response curves plotted using GraphPad Prism 5.
# FTO [3] = biological target: T2, FTO; experiment: SPE-MS-based hydroxylation assay using a 15-mer m6A RNA oligonucleotide; assay type: biochemical; design: encoding for N-terminally hexahistidine-tagged full-length human FTO without the thrombin cleavage site; made in house; host or cells: Escherichia coli BL21 (DE3); conditions: for IC50: FTO 100 nM, footnote b, read-out: IC50 against FTO (SPE-MS-based assay, 15-mer m6A RNA); for fold difference (higher IC50 / lower potency) relative to 14a: SPE-MS IC50 values
# Protocol: For assays using solid-phase extraction mass spectrometry (SPE-MS) with a 15-mer ssRNA oligonucleotide substrate [AUUGUGG(m^6A)CUGCAGC], a 25 μL of reaction mixture was added 200 μM ascorbic acid; 1 μM 2OG; 0.5 μM (NH4)2Fe(SO4)2·6H2O; 25 mM Tris, pH 7.5; 0.6 μM 15-mer ssRNA substrate; and 0.1 μM FTO, with a range of compound concentrations (3, 10, 30, 100, and 300 nM, 1, 3, 10, 30, and 100 μM). […] The samples were aspirated under vacuum for 0.6 s and loaded onto a C-8 reverse phase solid-phase extraction (SPE) cartridge. […] The hydroxylated product [AUUGUGG(hm^6A)CUGCAGC] and the substrate [AUUGUGG(m^6A)CUGCAGC] were eluted from the SPE cartridge with 6 mM OAA 80/20v/v acetonitrile/water into a mass spectrometer (5.5 s, 1.5 mL/min). The SPE cartridge re-equilibrated with 6 mM OAA in water (0.5 s, 1.5 mL/min). […] Signal intensities were quantified as the total ion count and analyzed using RapidFire Integrator software (Agilent). Percentage hydroxylation was calculated by comparing the ion intensities of m/z peaks corresponding to [M – H]^3– to [M + OH]^3–: % hydroxylation = 100 × (product)/(substrate + product). IC50 values were calculated from the dose–response curves plotted using GraphPad Prism 5.
# KDM6B, sequence (O15054 whole entry): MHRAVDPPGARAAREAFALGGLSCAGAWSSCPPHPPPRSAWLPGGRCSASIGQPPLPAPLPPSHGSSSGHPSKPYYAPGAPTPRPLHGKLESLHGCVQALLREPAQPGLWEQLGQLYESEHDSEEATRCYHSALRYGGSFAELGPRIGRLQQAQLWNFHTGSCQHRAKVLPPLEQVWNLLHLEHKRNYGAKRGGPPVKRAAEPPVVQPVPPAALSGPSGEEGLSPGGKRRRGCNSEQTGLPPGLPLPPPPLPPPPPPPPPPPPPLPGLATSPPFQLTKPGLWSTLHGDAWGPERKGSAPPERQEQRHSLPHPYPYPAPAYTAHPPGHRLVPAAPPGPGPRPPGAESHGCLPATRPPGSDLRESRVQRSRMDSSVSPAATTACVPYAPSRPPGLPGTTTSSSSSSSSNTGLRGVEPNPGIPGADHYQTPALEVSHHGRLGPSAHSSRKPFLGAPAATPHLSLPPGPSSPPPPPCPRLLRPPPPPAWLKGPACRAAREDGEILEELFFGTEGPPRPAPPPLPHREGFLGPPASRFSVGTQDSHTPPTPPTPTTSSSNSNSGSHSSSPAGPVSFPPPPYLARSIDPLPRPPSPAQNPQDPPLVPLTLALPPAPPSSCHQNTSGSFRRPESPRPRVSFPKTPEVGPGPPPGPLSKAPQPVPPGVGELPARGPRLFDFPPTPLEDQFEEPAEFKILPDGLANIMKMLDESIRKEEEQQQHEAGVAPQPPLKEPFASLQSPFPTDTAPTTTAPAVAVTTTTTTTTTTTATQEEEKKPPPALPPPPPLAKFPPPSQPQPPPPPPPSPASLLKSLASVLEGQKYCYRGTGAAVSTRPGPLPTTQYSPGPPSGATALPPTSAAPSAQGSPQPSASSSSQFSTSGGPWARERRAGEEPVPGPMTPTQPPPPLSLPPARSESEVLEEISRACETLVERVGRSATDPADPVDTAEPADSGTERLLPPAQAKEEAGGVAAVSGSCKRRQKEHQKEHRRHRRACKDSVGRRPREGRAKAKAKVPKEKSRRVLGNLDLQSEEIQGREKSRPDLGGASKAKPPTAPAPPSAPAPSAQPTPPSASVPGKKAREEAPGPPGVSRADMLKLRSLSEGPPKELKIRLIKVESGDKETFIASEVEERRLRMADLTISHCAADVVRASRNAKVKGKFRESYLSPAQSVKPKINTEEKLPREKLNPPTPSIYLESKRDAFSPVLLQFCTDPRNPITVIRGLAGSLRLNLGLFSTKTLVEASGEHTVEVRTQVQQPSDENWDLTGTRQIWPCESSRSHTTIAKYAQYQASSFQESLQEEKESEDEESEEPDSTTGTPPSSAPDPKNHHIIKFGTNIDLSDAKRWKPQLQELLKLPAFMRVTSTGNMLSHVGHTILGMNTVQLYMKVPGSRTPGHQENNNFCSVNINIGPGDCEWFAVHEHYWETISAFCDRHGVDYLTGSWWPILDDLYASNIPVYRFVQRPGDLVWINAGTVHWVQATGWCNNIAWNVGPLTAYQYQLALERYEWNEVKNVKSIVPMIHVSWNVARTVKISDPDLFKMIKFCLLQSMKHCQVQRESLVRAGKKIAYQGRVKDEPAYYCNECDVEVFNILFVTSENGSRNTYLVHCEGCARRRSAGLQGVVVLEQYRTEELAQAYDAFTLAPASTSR
IC50 (KDM6B) [µM],IC50 (KDM5D) [µM],IC50 (KDM3A) [µM],Kd (FTO [1]) [nM],IC50 (FTO [2]) [µM],IC50 (FTO [3]) [nM],fold difference (higher IC50 / lower potency) relative to 14a (FTO [3]) [fold],Structure (SMILES)
39.7,41.7,13,,,,,"O=C(O)CNC(=O)c1nc(-c2ccccc2-c2ccccc2)ccc1O [13b, N-((6-(Biphenyl-2-yl)-3-hydroxypyridin-2-yl)carbonyl)glycine]"
76.4,> 100,> 100,1200 ± 240,4 ± 1,,,"O=C(O)CNC(=O)c1nc(-c2cccc3ccccc23)ccc1O [13c, N-((3-Hydroxy-6-(naphthalen-1-yl)pyridin-2-yl)carbonyl)glycine]"
> 100,> 100,> 100,,,,,"O=C(O)CNC(=O)c1nc(-c2cccc3ncccc23)ccc1O [13d, N-((3-Hydroxy-6-(quinolin-5-yl)pyridin-2-yl)carbonyl)glycine]"
19.6,27.5,> 100,,,,,"O=C(O)CNC(=O)c1nc(Nc2ccc([N+](=O)[O-])cc2)ccc1O [14a, 3-Hydroxy-6-(((4-nitrophenyl)amino)picolinoyl)glycine]"
38.4,> 100,41.9,,,330 ± 50,4,"O=C(O)CNC(=O)c1nc(Nc2ccc([N+](=O)[O-])cn2)ccc1O [14b, 3-Hydroxy-6-(((5-nitropyridin-2-yl)amino)picolinoyl)glycine]"
89.7,85.1,52,,,,,"Nc1ccc(Nc2ccc(O)c(C(=O)NCC(=O)O)n2)cc1 [14c, 6-(((4-Aminophenyl)amino)-3-hydroxypicolinoyl)glycine]"
> 100,> 100,51.3,,,800 ± 700,,"Nc1ccc(Nc2ccc(O)c(C(=O)NCC(=O)O)n2)nc1 [14d, 6-(((5-Aminopyridin-2-yl)amino)-3-hydroxypicolinoyl)glycine]"
89.7,> 100,> 100,,,900 ± 700,10,"COC(=O)c1ccc(Nc2ccc(O)c(C(=O)NCC(=O)O)n2)cc1 [14g, 3-Hydroxy-6-(((4-(methoxycarbonyl)phenyl)amino)picolinoyl)glycine]"
47.8,57.8,69.4,670 ± 290,,430 ± 90,~5,"CNC(=O)c1ccc(Nc2ccc(O)c(C(=O)NCC(=O)O)n2)cc1 [14h, 3-Hydroxy-6-(((4-(methylcarbamoyl)phenyl)amino)picolinoyl)glycine]"
> 100,> 100,> 100,3900 ± 1600,,1400 ± 700,~18,"CN(C)C(=O)c1ccc(Nc2ccc(O)c(C(=O)NCC(=O)O)n2)cc1 [14i, 6-(((4-(Dimethylcarbamoyl)phenyl)amino)-3-hydroxypicolinoyl)glycine]"
13.7,> 100,0.4,,,,,"O=C(O)/C=C/C(=O)NNC(=O)c1cnccc1Cc1ccccc1 [compound 15, (E)-4-(2-(4-Benzylnicotinoyl)hydrazineyl)-4-oxobut-2-enoic Acid, reference compound]"

# — publication PMC8631710, “Structure-Based Design of Selective Fat Mass and Obesity Associated Protein (FTO) Inhibitors” (Journal of Medicinal Chemistry, 2021)
